In paper PMC3382171 (PLoS ONE, 2012) one finds inhibition data, which are given here for two compounds.

Common to all, as to experiment: biochemical
One assay concerns the target T1, AuroraB (Homo sapiens, UniProt Q96GD4).
T1 construct: gene AURKB
The note with it: read-out: Dundee KSS % inhibition at 1uM. Here is the method: (§1) The METi and RAFi were screened against kinase panels (SelectScreen, Invitrogen; University of Dundee, Division of Signal Transduction Therapy, UK; Upstate Biotechnology/Millipore, Billerica, MA). In these selectivity assays the concentration of ATP was set to the Km value of ATP for each kinase tested to allow for a relative potency comparison between the various kinases. The compounds were tested at 1 µM final concentration. […] (A) Kinase selectivity screen (KSS) performed at Upstate Biotechnology. […] (B) KSS performed at University of Dundee (Division of Signal Transduction Therapy). […] (PDF) Click here for additional data file.

In another assay the target is T2, AuroraC (Homo sapiens, UniProt Q9UQB9).
T2 construct: gene AURKC
Particulars: read-out: Dundee KSS % inhibition at 1uM. How it is done: as §1

A further assay has as its target T3, CAMK-1 (Homo sapiens, UniProt Q14012).
T3 construct: gene CAMK1
Particulars: read-out: Dundee KSS % inhibition at 1uM. How it is done: as §1

For the next assay, the target named is CSK (Homo sapiens, UniProt P41240). Particulars: read-out: Dundee KSS % inhibition at 1uM. How it is done: as §1
The next assay deals with DYRK3 (Homo sapiens, UniProt O43781). Particulars: read-out: Dundee KSS % inhibition at 1uM. How it is done:
as §1

The next assay has as its target T4, ERK8 (Homo sapiens, UniProt Q8TD08).
T4 construct: gene MAPK15
The note with it: read-out: Dundee KSS % inhibition at 1uM. Here is the method: as §1

The target in the next assay is T5, IKKbeta (Homo sapiens, UniProt O14920).
T5 construct: gene IKBKB
Particulars: read-out: Dundee KSS % inhibition at 1uM. How it is done: as §1

The target in a further assay is T6, JNK2 (Homo sapiens, UniProt P45984).
T6 construct: gene MAPK9
The note with it: read-out: Dundee KSS % inhibition at 1uM. How it is done:
as §1

For another assay, the target named is T7, JNK3 (Homo sapiens, UniProt P53779).
T7 construct: gene MAPK10
The note with it: read-out: Dundee KSS % inhibition at 1uM. How it is done:
as §1

In the next assay the target is MAPK1/ERK2 (Homo sapiens, UniProt P28482). The note with it: read-out: Dundee KSS % inhibition at 1uM. How it is done: as §1
The next assay addresses T8, MAPKAP-K1a (Homo sapiens, UniProt Q15418).
T8 construct: gene RPS6KA1
The note with it: read-out: Dundee KSS % inhibition at 1uM. Here is the method: as §1

For a further assay, the target named is MARK3 (Homo sapiens, UniProt P27448). Particulars: read-out: Dundee KSS % inhibition at 1uM. How it is done:
as §1

The target of another assay is NEK6 (Homo sapiens, UniProt Q9HC98). The note with it: read-out: Dundee KSS % inhibition at 1uM. Here is the method: as §1
The next assay addresses T9, P70S6K (Homo sapiens, UniProt P23443).
T9 construct: gene RPS6KB1
The note with it: read-out: Dundee KSS % inhibition at 1uM. Here is the method:
as §1

The target in a further assay is PIM1 (Homo sapiens, UniProt P11309). The note with it: read-out: Dundee KSS % inhibition at 1uM. How it is done: as §1
Another assay concerns the target T10, PRAK (Homo sapiens, UniProt Q8IW41).
T10 construct: gene MAPKAPK5
Particulars: read-out: Dundee KSS % inhibition at 1uM. Here is the method:
as §1

A further assay concerns the target T11, SAPK2A/p38 (Homo sapiens, UniProt Q16539).
T11 construct: gene MAPK14
Particulars: read-out: Dundee KSS % inhibition at 1uM. How it is done:
as §1

For another assay, the target named is T12, SAPK3/p38g (Homo sapiens, UniProt P53778).
T12 construct: gene MAPK12
The note with it: read-out: Dundee KSS % inhibition at 1uM. How it is done: as §1

The target in another assay is SRPK1 (Homo sapiens, UniProt Q96SB4). The note with it: read-out: Dundee KSS % inhibition at 1uM. How it is done:
as §1

The next assay deals with chicken SRC (Gallus gallus, UniProt P00523). Particulars: read-out: Dundee KSS % inhibition at 1uM. Here is the method:
as §1

For another assay, the target named is T13, deltaPH-PKBbeta (Homo sapiens, UniProt P31751).
T13 construct: gene AKT2; delta PH
The note with it: read-out: Dundee KSS % inhibition at 1uM. Here is the method: as §1

The target in another assay is mouse LCK (Mus musculus, UniProt P06240). Particulars: read-out: Dundee KSS % inhibition at 1uM. How it is done: as §1
The target in a further assay is T14, rat ROCKII (Rattus norvegicus, UniProt Q62868).
T14 construct: gene Rock2
The note with it: read-out: Dundee KSS % inhibition at 1uM. Here is the method:
as §1

In a further assay the target is ZAP70 (Homo sapiens, UniProt P43403). Also on record: gene ZAP70. Particulars: read-out: Upstate KSS % inhibition at 1uM. Here is the method: In these selectivity assays the concentration of ATP was set to the Km value of ATP for each kinase tested to allow for a relative potency comparison between the various kinases. The compounds were tested at 1 µM final concentration. […] (A) Kinase selectivity screen (KSS) performed at Upstate Biotechnology. […] (B) KSS performed at University of Dundee (Division of Signal Transduction Therapy). […] (PDF) Click here for additional data file.

For a further assay, the target named is DYRK1A (Homo sapiens, UniProt Q13627). Details: Invitrogen SelectScreen kinase panel, percent inhibition at 1 uM, ATP at Km. Particulars: read-out: Invitrogen KSS %Inh at 1 µM. The essentials:
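Commercial kinase panel screens run with ATP at the Km for each kinase. Compounds tested at 1 µM final concentration; values are % inhibition of phosphorylation relative to control.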

T4 sequence (Q8TD08 whole entry): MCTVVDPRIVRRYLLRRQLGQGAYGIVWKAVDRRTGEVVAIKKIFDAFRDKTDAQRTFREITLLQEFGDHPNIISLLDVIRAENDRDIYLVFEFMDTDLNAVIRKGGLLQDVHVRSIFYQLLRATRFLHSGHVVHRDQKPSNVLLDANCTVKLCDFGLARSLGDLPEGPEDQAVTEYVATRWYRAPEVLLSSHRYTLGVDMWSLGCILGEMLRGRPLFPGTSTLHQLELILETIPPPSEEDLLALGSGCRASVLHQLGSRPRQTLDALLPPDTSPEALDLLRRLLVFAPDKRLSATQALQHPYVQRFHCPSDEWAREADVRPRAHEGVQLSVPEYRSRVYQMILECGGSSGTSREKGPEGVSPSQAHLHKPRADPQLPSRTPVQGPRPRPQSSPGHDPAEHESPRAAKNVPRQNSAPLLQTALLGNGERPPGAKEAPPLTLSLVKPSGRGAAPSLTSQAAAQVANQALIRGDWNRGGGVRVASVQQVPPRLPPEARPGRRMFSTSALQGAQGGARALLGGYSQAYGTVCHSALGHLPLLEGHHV
Chain of PIM1 (P11309 whole entry): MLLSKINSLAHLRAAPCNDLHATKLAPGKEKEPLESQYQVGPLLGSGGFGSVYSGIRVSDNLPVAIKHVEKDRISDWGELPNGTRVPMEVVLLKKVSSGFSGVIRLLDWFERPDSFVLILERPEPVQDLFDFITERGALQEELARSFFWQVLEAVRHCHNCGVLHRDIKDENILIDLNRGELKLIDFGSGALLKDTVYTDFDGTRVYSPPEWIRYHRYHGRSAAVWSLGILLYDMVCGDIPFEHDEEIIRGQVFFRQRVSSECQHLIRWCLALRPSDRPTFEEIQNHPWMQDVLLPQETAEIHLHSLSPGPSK
T13 sequence (P31751 whole entry): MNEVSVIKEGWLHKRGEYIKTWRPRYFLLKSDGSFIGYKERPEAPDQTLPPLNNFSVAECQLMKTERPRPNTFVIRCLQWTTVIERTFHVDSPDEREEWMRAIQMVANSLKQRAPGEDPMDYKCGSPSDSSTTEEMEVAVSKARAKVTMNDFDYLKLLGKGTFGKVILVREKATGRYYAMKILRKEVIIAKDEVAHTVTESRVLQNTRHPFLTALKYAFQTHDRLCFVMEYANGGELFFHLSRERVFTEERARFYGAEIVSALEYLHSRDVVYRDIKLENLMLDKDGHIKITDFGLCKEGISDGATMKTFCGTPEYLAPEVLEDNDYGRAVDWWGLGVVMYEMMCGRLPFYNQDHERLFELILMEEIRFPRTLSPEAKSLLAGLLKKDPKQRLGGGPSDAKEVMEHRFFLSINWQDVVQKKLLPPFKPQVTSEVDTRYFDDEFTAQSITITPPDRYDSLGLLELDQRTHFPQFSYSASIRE
T1 sequence (Q96GD4 whole entry): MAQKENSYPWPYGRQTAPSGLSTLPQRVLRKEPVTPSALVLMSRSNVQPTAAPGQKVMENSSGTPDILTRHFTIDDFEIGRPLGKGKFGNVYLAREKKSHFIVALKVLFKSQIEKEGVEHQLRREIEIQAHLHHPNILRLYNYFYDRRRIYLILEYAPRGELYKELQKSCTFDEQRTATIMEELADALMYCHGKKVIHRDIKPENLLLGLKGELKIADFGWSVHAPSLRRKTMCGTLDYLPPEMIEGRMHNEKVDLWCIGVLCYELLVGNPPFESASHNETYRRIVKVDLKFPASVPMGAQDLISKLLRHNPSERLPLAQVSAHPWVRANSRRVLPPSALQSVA
T14 sequence (Q62868 whole entry): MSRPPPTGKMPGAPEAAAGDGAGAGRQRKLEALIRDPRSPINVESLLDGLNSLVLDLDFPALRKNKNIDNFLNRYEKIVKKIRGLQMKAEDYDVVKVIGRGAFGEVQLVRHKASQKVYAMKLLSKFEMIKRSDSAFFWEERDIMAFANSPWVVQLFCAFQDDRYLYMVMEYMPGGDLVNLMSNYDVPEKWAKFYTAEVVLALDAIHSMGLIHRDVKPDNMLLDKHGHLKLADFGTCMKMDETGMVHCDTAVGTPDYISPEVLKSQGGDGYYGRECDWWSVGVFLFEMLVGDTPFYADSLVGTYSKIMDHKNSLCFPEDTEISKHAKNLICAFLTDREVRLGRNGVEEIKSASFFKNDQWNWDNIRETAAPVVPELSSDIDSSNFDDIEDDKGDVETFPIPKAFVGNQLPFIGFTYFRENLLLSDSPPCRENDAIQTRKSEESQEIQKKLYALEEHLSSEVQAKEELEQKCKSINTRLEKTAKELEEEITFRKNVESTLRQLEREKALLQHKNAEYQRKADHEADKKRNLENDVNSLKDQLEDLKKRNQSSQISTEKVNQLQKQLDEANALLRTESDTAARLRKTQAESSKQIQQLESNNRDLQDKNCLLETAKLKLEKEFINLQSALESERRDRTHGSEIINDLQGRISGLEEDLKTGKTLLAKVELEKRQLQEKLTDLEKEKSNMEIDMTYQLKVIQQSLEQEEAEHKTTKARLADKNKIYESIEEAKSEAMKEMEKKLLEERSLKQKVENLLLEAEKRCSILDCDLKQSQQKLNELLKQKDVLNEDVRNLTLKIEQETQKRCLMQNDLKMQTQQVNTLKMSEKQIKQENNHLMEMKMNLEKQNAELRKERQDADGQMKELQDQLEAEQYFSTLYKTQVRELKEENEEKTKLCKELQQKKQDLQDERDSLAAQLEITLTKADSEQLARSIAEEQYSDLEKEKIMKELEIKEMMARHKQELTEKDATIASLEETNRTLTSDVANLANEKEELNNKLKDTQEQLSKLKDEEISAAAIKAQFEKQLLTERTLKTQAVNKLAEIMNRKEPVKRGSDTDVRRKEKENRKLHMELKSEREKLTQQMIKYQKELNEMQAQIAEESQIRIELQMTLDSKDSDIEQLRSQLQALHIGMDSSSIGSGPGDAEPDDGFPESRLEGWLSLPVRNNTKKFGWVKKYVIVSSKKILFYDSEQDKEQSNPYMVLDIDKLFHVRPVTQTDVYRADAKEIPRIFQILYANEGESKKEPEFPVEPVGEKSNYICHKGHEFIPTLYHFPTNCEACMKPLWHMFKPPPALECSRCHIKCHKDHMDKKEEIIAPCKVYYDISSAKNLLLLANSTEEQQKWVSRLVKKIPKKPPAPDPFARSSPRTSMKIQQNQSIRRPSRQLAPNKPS
T5 sequence (O14920 whole entry): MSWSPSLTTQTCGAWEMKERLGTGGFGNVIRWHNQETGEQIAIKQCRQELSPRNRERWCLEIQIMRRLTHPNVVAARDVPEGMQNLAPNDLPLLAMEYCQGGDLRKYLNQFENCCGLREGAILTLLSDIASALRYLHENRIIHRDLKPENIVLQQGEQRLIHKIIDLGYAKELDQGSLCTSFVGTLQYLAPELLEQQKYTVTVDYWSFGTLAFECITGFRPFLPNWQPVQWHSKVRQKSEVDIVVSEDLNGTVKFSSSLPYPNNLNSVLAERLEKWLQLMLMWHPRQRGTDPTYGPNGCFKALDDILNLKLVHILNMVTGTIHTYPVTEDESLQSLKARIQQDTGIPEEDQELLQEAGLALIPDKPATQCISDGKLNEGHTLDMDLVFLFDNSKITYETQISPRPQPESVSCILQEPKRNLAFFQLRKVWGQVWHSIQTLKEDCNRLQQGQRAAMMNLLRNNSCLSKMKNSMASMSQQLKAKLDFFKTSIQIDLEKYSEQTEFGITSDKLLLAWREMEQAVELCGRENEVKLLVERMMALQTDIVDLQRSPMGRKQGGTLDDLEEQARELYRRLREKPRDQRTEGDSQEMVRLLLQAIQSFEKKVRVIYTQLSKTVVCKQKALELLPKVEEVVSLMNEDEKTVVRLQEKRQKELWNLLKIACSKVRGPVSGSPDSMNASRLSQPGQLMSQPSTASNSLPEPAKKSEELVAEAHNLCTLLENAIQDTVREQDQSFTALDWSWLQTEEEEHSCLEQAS
Chain of CSK (P41240 whole entry): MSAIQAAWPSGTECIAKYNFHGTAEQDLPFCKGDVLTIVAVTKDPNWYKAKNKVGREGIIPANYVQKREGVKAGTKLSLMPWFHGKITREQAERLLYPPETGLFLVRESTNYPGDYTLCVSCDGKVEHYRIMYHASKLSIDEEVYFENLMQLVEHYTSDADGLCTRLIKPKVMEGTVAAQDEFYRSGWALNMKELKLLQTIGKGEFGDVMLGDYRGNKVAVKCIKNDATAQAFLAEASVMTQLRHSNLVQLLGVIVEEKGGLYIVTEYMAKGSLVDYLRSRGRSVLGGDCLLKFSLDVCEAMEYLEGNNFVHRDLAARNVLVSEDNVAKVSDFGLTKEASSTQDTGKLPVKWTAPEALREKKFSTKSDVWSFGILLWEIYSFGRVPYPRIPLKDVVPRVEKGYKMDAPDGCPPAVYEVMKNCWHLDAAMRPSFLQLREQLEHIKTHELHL
Chain of mouse LCK (P06240 whole entry): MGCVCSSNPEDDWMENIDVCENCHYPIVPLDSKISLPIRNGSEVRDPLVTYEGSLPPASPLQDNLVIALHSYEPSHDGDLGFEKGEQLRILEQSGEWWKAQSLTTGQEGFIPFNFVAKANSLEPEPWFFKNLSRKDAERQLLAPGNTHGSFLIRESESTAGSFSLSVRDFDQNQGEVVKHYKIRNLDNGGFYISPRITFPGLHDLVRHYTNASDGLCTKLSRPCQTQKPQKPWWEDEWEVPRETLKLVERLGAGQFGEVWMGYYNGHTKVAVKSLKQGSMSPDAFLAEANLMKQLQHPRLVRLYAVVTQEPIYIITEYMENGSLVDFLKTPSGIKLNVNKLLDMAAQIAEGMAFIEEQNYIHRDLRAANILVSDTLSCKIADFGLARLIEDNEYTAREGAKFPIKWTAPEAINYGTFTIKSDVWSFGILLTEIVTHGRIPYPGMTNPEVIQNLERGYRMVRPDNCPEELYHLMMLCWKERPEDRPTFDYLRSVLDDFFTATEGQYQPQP

On to `OCCn1cc(-c2cnc3nnn(Cc4ccc5ncccc5c4)c3n2)cn1` [METi, PF-04217903], for which the inhibition at 1 µM was 11.2% at AuroraB; 6.48% at AuroraC; 12.8% at CAMK-1; 5.77% on CSK; -18.2% at DYRK3; 14.8% on ERK8. The inhibition at 1 µM is 22.5% at IKKbeta; 14.9% on JNK2; -2.36% on JNK3; -13% at MAPK1/ERK2; 3.34% at MAPKAP-K1a; 4.4% at MARK3. Besides, the inhibition at 1 µM on NEK6 is 8.99%; at P70S6K, -0.67%; at PIM1 it was 4.46%; at PRAK, 4.01%; on SAPK2A/p38 it was 2.86%; at SAPK3/p38g it was 3.7%. In addition, the inhibition at 1 µM at SRPK1 was 13.5%; on chicken SRC, -11.5%; on deltaPH-PKBbeta, 8.16%; on mouse LCK, 15.7%; on rat ROCKII it was 12.8%; at ZAP70, 3%.

`N#CCCNc1nccc(-c2cn(CC(F)F)nc2-c2cnc3[nH]ccc3c2)n1` [RAFi, PF-04880594]: on DYRK1A, the inhibition at 1 µM is -12%.
